In US6638964B2, “Sulfonamide-containing indole compounds” (Eisai Co., Ltd., priority 1999, dated 2003):
Values after ≈ are worked out from the molar mass of the structure shown.

How the values were obtained:
[1] = test system: KP-1 cell strain derived from human pancreatic cancer; experiment: Antitumor effect, KP-1 human pancreatic cancer subcutaneously transplanted to nude mice; assay type: in vivo, nude mice (KSN); conditions: for size of the tumor compared with that in the group to which no drug was administered: 22nd day, KP-1
Description: (§1) In the meanwhile, evaluation of an antitumor effect was carried out in accordance with a method of Koyanagi, et al. (Cancer Res., 94, 1702-1706, 1994) using a KP-1 cell strain derived from human pancreatic cancer and an HCT 116 cell strain derived from human cancer of the colon. The above-mentioned human cancer cells (5^×10^6 cells) were subcutaneously transplanted to nude mice (KSN) of 6 to 7 weeks age and, since the stage where it became to the size of about 100 mm^3, administration of the compound of the present invention was started. In the experiments, ten mice were used for a group to which no drug was administered while, in a drug-administered group, five mice were used for each dose. The dose of 50 mg/kg, 100 mg/kg or 200 mg/kg was continuously administered per os two times a day and the size of the tumor on the 22nd day from the beginning of the administration was compared with that in the group to which no drug was administered. The result was 37%, 30% and 11%, respectively in the KP-1 cell strain derived from human pancreatic cancer and 0.2%, 0.3% and 0.0%, respectively in the HCT 116 cell strain derived from human cancer of the colon in the case of a group to which the compound of Example 1 was administered for example.

[2] = test system: HCT 116 cell strain derived from human cancer of the colon; experiment: Antitumor effect, HCT 116 human colon cancer subcutaneously transplanted to nude mice; assay type: in vivo, nude mice (KSN); conditions: 22nd day
Description: as §1

Mouse B16 melanoma cells = experiment: Inhibitory effect of proliferation of mouse B16 melanoma (MTT method); assay type: cell-based; conditions: 72 h, incubating for 3 days
Description: Mouse B16 melanoma cells incubated in a Dulbecco-modified Eagle medium (DMED; manufactured by Nissui Seiyaku) containing 10% of fetal bovine serum, 100 Units/ml of penicillin and 100 μg/ml of streptomycin were adjusted to 2^×10^4 cells/ml and each 100 μl thereof were separately placed on a 96-well plate. After an incubation was carried out in a CO2 incubator (5% CO2) at 37° C. for one night, then 100 μl of the above culture containing a test compound diluted in a 3-fold series were added thereto followed by incubating for 3 days and the cell numbers at that time were measured by an MTT method. Incidentally, a treatment with a 0.33% MTT solution was carried out for 1-2 hour(s).
(§2) Inhibiting rate was calculated from the following formula and 50% inhibiting concentration (IC50) was determined for each compound.
(§3) Inhibiting Rate (%)=(C−T)/C^×100
(§4) C: Absorbance when no compound was added
(§5) T: Absorbance when a compound was added

[3] = test system: Endothelial cells derived from human umbilical vein (HUVEC); experiment: Inhibitory effect of growth of endothelial cells (MTT method); assay type: cell-based; conditions: 72 h, incubating for three days
Description: Endothelial cells derived from human umbilical vein (HUVEC; manufactured by Sanko Junyaku) incubated in an EGM medium (manufactured by Sanko Junyaku) containing 100 Units of penicillin and 100 μg/ml of streptomycin were adjusted to 0.8-1×10^4 cells/ml and each 100 μl were separately placed on a 96-well plate. After incubating in a CO2 incubator (5% CO2) at 37 ° C. overnight, 100 μl of EGM medium containing test compound diluted in a three-fold manner were added thereto followed by incubating for three days. The cell numbers at that time were measured by MTT method. That is, 50 μl of phosphate buffer containing 0.33% of 3-(4,5-dimethylthiazol-2-yl)-2,5-diphenyltetrazolium bromide (MTT) was added thereto and incubation was continued for 3-4 hours. Then, after the supernatant liquid of the culture was removed, 100 μl of dimethyl sulfoxide (DMSO) was added to dissolve a formazane which was formed in the cells and the absorbance at the wave length of 540 nm was measured by use of plate reader (manufactured by Corona Denki).
as §2
Inhibition Rate (%)=(C−T)/C×100
as §4, §5

aorta pieces of rat = experiment: Antiangiogenic effect: capillary formation from rat aorta pieces incubated in collagen; assay type: cell-based; conditions: numbers of capillaries formed around the aorta, 7th day from addition of test compound
Description: The inhibition degree of angiogenesis which was observed when aorta pieces of rat were incubated in collagen was defined as an antiangiogenic effect. That is, the aorta excised from male rat of Sprague-Dawley strain (10-12 weeks age) was washed with a Hanks' solution so that fat tissues around there were removed minutely. The aorta was incised to prepare pieces of 2 mm square and they were allowed to stand in a 24-well plate holding the endothelial cells upside. Then, 500 μl of neutralized Type I collagen (Cell Matrix Type I-A; manufactured by Nitta Gelatin) were poured over each well and allowed to stand at room temperature for about 20 minutes in a clean bench to solidify the gel. After confirming that the gel was solidified, 500 μl of MCDB 131 medium (manufactured by Chlorella Kogyo) were added thereto followed by incubating in a CO2 incubator (5% CO2) at 37° C. On the next day, the culture medium was exchanged with 500 μl of MCDB 131 medium containing the test compound and the incubation was continued. After three days, the medium was again exchanged with 500 μl of MCDB 131 medium containing the test compound and, at the stage of the 7th day from the initiation of addition of the test compound, numbers of capillaries formed around the aorta were counted under a microscope. The solution containing the test compound was prepared in a three-fold dilution system where 10 μg/ml was the highest concentration.
Inhibiting rate was calculated from the following formula and 50% inhibiting concentration (IC50) for each test compound was determined.
as §3
C: Numbers of capillaries when no compound was added
T: Numbers of capillaries when a compound was added

[4] = 50 mg/kg per os two times a day
[5] = 100 mg/kg per os two times a day
[6] = 200 mg/kg per os two times a day

| Structure (SMILES) | IC50 (Mouse B16 melanoma cells) [µg/mL] | IC50 (aorta pieces of rat) [µg/mL] | size of the tumor compared with that in the group to which no drug was administered [1, 4] [%] | size of the tumor compared with that in the group to which no drug was administered [1, 5] [%] | size of the tumor compared with that in the group to which no drug was administered [1, 6] [%] | antitumor effect ([1]; overall statement for KP-1 and HCT 116 transplanted nude mice) | size of the tumor compared with that in the group to which no drug was administered [2, 4] [%] | size of the tumor compared with that in the group to which no drug was administered [2, 5] [%] | size of the tumor compared with that in the group to which no drug was administered [2, 6] [%] | IC50 [3] [µg/mL] |
| --- | --- | --- | --- | --- | --- | --- | --- | --- | --- | --- |
| Cc1ccc(NS(=O)(=O)c2cccc(C#N)c2)c2[nH]cc(C#N)c12 [Example 1, 3-Cyano-N-(3-cyano-4-methyl-1H-indol-7-yl)benzenesulfonamide] | 10 (≈ 29.7 µM) | 0.08 (≈ 0.238 µM) | 37 | 30 | 11 | significant antitumor effect | 0.2 | 0.3 | 0.0 | 0.1 (≈ 0.297 µM) |
| Cc1ccc(NS(=O)(=O)c2ccc(Cl)nc2)c2[nH]cc(C#N)c12 [Example 2, 6-Chloro-N-(3-cyano-4-methyl-1H-indol-7-yl)-3-pyridinesulfonamide] | 15 (≈ 43.3 µM) | 0.07 (≈ 0.202 µM) | – | – | – | – | – | – | – | 0.12 (≈ 0.346 µM) |
| Cc1cc(NS(=O)(=O)c2ccc(S(N)(=O)=O)cc2)c2[nH]cc(Br)c2c1 [Example 3, N-(3-Bromo-5-methyl-1H-indole-7-yl)-4-sulfamoylbenzenesulfonamide] | 21 (≈ 47.3 µM) | 0.1 (≈ 0.225 µM) | – | – | – | – | – | – | – | 0.62 (≈ 1.4 µM) |
| Nc1ccc(S(=O)(=O)Nc2cc(Br)cc3c(Cl)c[nH]c23)cn1 [Example 4, 6-Amino-N-(5-bromo-3-chloro-1H-indole-7-yl)-3-pyridinesulfonamide] | 19 (≈ 47.3 µM) | 0.1 (≈ 0.249 µM) | – | – | – | – | – | – | – | 1.3 (≈ 3.24 µM) |
| Cc1cc(NS(=O)(=O)c2cccc(C#N)c2)c2[nH]cc(Br)c2c1 [Example 5, N-(3-Bromo-5-methyl-1H-indole-7-yl)-3-cyanobenzenesulfonamide] | 8.8 (≈ 22.5 µM) | 0.15 (≈ 0.384 µM) | – | – | – | – | – | – | – | 0.98 (≈ 2.51 µM) |
| N#Cc1ccc(S(=O)(=O)Nc2ccc(Br)c3cc[nH]c23)cc1 [Example 6, N-(4-Bromo-1H-indole-7-yl)-4-cyanobenzenesulfonamide] | 6.5 (≈ 17.3 µM) | 0.06 (≈ 0.159 µM) | – | – | – | – | – | – | – | 1.2 (≈ 3.19 µM) |
| Nc1ccc(S(=O)(=O)Nc2ccc(Cl)c3cc[nH]c23)cn1 [Example 7, 6-Amino-N-(4-chloro-1H-indole-7-yl)-3-pyridinesulfonamide] | 7.5 (≈ 23.2 µM) | 0.42 (≈ 1.3 µM) | – | – | – | – | – | – | – | 0.98 (≈ 3.04 µM) |

Second part, led by results:

| IC50 (Mouse B16 melanoma cells) [µg/mL] | IC50 (aorta pieces of rat) [µg/mL] | Structure (SMILES) | size of the tumor compared with that in the group to which no drug was administered [1, 4] [%] | size of the tumor compared with that in the group to which no drug was administered [1, 5] [%] | size of the tumor compared with that in the group to which no drug was administered [1, 6] [%] | antitumor effect ([1]; overall statement for KP-1 and HCT 116 transplanted nude mice) | size of the tumor compared with that in the group to which no drug was administered [2, 4] [%] | size of the tumor compared with that in the group to which no drug was administered [2, 5] [%] | size of the tumor compared with that in the group to which no drug was administered [2, 6] [%] | IC50 [3] [µg/mL] |
| --- | --- | --- | --- | --- | --- | --- | --- | --- | --- | --- |
| 19 (≈ 47.3 µM) | 0.05 (≈ 0.124 µM) | Nc1ccc(S(=O)(=O)Nc2ccc(Cl)c3c(Br)c[nH]c23)cn1 [Example 8, 6-Amino-N-(3-bromo-4-chloro-1H-indole-7-yl)-3-pyridinesulfonamide] | – | – | – | – | – | – | – | 0.49 (≈ 1.22 µM) |
| 8.4 (≈ 21.2 µM) | 0.05 (≈ 0.126 µM) | Cc1cc(NS(=O)(=O)c2ccc(C#N)s2)c2[nH]cc(Br)c2c1 [Example 9, N-(3-Bromo-5-methyl-1H-indole-7-yl)-5-cyano-2-thiophenesulfonamide] | – | – | – | – | – | – | – | 1.6 (≈ 4.04 µM) |
| 23 (≈ 57.1 µM) | 0.06 (≈ 0.149 µM) | Nc1ncc(S(=O)(=O)Nc2ccc(Br)c3c(Cl)c[nH]c23)cn1 [Example 10, 2-Amino-N-(4-bromo-3-chloro-1H-indole-7-yl)-5-pyrimidinesulfonamide] | – | – | – | – | – | – | – | 0.38 (≈ 0.944 µM) |
